These results are taken from US11207322B2, “Method and composition related to combination therapy for addiction” (Board of Regents, The University of Texas System, priority 2017, dated 2021).

Entries after “also recorded” stand apart in the source; their conditions may differ.

Data set [1] deals with 5-HT2C receptors. To be noted: in vivo; cited from earlier work.
The test system of data set [2] is rhesus monkeys responding for 0.032 mg/kg/inf cocaine. To be noted: cited from earlier work; for effectiveness on cocaine self-administration with daily dosing: administered daily for 10-14 days.
The conditions of data set [3]: e.g., valvulopathies; cited from earlier work.
Data set [4] deals with rhesus and cynomolgus monkeys. To be noted: in vivo; cited from earlier work.
Data set [5] addresses T1, DA D3 receptor (Homo sapiens, UniProt P35462). To be noted: cited from earlier work.
For data set [6], the system named is rhesus monkeys, responding reinstated by cocaine. Description: cocaine-primed reinstatement of extinguished responding for cocaine. The class given is in vivo, rhesus monkey. To be noted: 0.32 mg/kg cocaine prime; 4 rhesus monkeys.
Method: Reinstatement of responding for cocaine.
Experimental design. Monkeys will respond for 0.032 mg/kg/inf cocaine under a FR30:TO180-sec schedule of reinforcement during daily 90-min sessions. During extinction, all stimulus lights will be extinguished with responding being recorded but having no scheduled consequence. During reinstatement tests, the drug-associated stimuli (i.e., the green and red stimulus lights) will be presented according to an FR30:TO180-sec schedule but no infusions will be delivered. Priming infusions of cocaine or saline will be injected directly into the vascular access port (followed by a 5-ml saline flush) 5 min before the start of the session.
The acute effects of lorcaserin (0.1-3.2 mg/kg; SC; 15 min PT) and buspirone (0.1-3.2 mg/kg; SC; 15 min PT) alone will be studied prior to evaluating mixtures. Because the nature of drug-drug interactions can vary depending upon the composition of the mixture, lorcaserin and buspirone will be evaluated over at least three fixed-dose pairs of at least three fixed-ratios (i.e., 3:1, 1:1, and 1:3), using the strategy described above. Mixtures will be based on the effects of lorcaserin and buspirone alone and customized to individual monkeys. […] Additional fixed-ratios mixtures (10:1 or 1:10) will be evaluated if significant, non-additive interactions are observed with either 3:1 or 1:3 ratios, respectively. […]
For data set [7], the system named is humans. To be noted: cited from earlier work.
Data set [8] deals with humans. To be noted: cited from earlier work. The source holds these as a separate data set.
The target of data set [9] is T1, DA D3 receptor. To be noted: in vivo; cited from earlier work.
Data set [10] has as its system rhesus monkeys responding for 0.032 mg/kg/inf cocaine. In words: cocaine self-administration under a progressive ratio (PR) schedule. It is filed as in vivo, rhesus monkey. To be noted: for effect on PR responding for cocaine (reinforcing effectiveness of cocaine): 0.032 mg/kg/inf cocaine, 4 rhesus monkeys (2 male, 2 female), acute.
The target of data set [11] is T2, 5-HT2C over 5-HT2A receptors (Homo sapiens, UniProt P28335).
T2 construct: expressed in transfected cells
T2 sequence (P28335 33-458): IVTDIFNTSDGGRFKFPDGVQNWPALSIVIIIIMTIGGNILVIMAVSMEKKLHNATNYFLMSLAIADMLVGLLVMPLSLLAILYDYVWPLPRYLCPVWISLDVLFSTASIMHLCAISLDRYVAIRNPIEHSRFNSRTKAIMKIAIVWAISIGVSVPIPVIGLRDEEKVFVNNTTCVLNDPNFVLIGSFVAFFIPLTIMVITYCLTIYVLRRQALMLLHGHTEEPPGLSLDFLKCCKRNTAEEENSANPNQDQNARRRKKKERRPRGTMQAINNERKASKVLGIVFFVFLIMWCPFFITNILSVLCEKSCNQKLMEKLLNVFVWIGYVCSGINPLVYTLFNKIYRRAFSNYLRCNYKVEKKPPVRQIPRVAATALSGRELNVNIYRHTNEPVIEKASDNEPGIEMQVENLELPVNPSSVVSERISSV
To be noted: cited from earlier work.

The subject of data set [12] is recreational drug users. To be noted: 20-60 mg; cited from earlier work.
Data set [13] deals with T3, 5-HT2C over 5-HT2B receptors (Homo sapiens, UniProt P28335).
T3 construct: expressed in transfected cells
T3 sequence (P28335 33-458): T2 sequence (P28335 33-458)
To be noted: cited from earlier work.

Data set [14] concerns obese adults. To be noted: in vivo; cited from earlier work.
Data set [15] has as its system 5-HT2A receptor. To be noted: doses comparable to those required to reduce body weight in rats; cited from earlier work.
Where [16] appears, read: functional assays, transfected cells.

T1 sequence (P35462 whole entry): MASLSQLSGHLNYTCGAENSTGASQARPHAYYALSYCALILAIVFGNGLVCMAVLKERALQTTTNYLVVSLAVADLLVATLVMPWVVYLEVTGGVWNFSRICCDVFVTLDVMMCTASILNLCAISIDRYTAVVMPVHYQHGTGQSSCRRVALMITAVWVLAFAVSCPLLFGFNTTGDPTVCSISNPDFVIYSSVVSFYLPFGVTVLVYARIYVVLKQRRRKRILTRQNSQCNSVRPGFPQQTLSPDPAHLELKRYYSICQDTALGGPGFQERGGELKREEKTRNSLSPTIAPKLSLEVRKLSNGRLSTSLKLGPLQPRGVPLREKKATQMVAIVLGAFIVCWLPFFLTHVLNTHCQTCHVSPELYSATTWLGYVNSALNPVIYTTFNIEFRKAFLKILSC

As for `Clc1cccc(COc2cncc(N3CCNCC3)n2)c1` [CP-809,101], the “cocaine self-administration and/or reinstatement” value in data set [1] is “decrease cocaine self-administration and/or inhibit the reinstatement of a response previously reinforced by cocaine”.

Consider `Clc1cncc(N2CCNCC2)n1` [MK 212], for which, in data set [1], the “cocaine self-administration and/or reinstatement” value is “decrease cocaine self-administration and/or inhibit the reinstatement of a response previously reinforced by cocaine”.

Take `C[C@H](N)Cn1ccc2cc(F)c(Cl)cc21` [Ro 60-0175]: in [1], the “cocaine self-administration and/or reinstatement” value is recorded as “decrease cocaine self-administration and/or inhibit the reinstatement of a response previously reinforced by cocaine”.

Turning to `c1cc2c3c(c1)[C@H]1CCC[C@H]1N3CCNC2` [WAY-163909], the “cocaine self-administration and/or reinstatement” value in [1] is reported as “decrease cocaine self-administration and/or inhibit the reinstatement of a response previously reinforced by cocaine”.

Turning to `O=C1CC2(CCCC2)CC(=O)N1CCCCN1CCN(c2ncccn2)CC1` [buspirone], the “effectiveness on cocaine self-administration with daily dosing” value in data set [2] is “retain their effectiveness to reduce cocaine self-administration”. In data set [3], the cardiovascular complications result was “devoid of serious cardiovascular complications”. The “cocaine self-administration in monkeys (literature)” value in data set [4] was “reliably decreased cocaine self-administration”. In addition, the “selective binding profile at DA D3 receptors” value in [5] was 5-70 fold. The “relative potency at 5-HT1A, DA D3, and DA D4 receptors” value in data set [5] (recent studies) was “roughly equipotent”. In addition, in [6], the “effectiveness of cocaine to reinstate extinguished responding for cocaine” value is reported as “dose-dependently decreases”. Moreover, the “sex-related difference in promoting abstinence” value in data set [7] (60 mg dose) was “more effective at promoting abstinence in males than in females”. Besides, the “abstinence from cocaine use, multi-site randomized double-blind placebo-controlled pilot study” value in data set [7] (60 mg) is listed as “failed to prolong abstinence from cocaine use”. In data set [8] (30 mg), the “reinforcing effects of cocaine in a human laboratory study” value is reported as “failed to alter the reinforcing effects of cocaine”. Besides, the “dose needed for clinically relevant DA D3 receptor occupancy relative to 60 mg maximal approved dose” value in [9] is given as “at least 3 fold”. Moreover, in [10], the “effect on PR responding for cocaine (reinforcing effectiveness of cocaine)” value is given as “inhibited responding in a dose-dependent manner; also recorded: dose-dependently decreases the reinforcing effectiveness of cocaine”. In addition, in [10] (PR schedule, 2 male and 2 female monkeys, more potent in males), the “potency in males relative to females at decreasing cocaine self-administration” value is about 10 fold.

On to `CN1CCc2cc(Cl)c(O)cc2[C@H]2c3ccccc3CC[C@@H]21` [ecopipam], for which the “subjective or reinforcing effects of cocaine in humans” value in data set [8] (doses that did not produce sedation) is “failed to alter the subjective or reinforcing effects of cocaine”.

For the compound `C[C@@H](Cc1ccccc1)NC(=O)[C@@H](N)CCCCN` [lisdexamfetamine], the “cocaine self-administration in monkeys (literature)” value in data set [4] is on record as “consistently reduce cocaine self-administration”. For the same compound, in data set [7] (doses approved to treat ADHD), the “cocaine abstinence in a clinical setting” value was “often ineffective at improving cocaine abstinence”.

`C[C@H]1CNCCc2ccc(Cl)cc21` [lorcaserin]: the “cocaine self-administration under fixed ratio and PR schedules (earlier report of the inventors)” value in data set [2] (acute administration) is reported as “dose-dependently inhibits cocaine self-administration”. In addition, the “effectiveness on cocaine self-administration with daily dosing” value in data set [2] is “retain their effectiveness to reduce cocaine self-administration”. Besides, the “persistence of anti-cocaine effects” value in data set [2] (repeated (daily) treatment) was “at least 14 days”. The “selectivity for 5-HT2C over 5-HT2A receptors” value in data set [11] (setting [16]) is about 20 fold. Besides, the “selectivity over the 5-HT2A receptor” value in [11] (in vitro testing) is 17 ×. Besides, the “subjective effects of supra-therapeutic doses” value in data set [12] is “subjective ratings of “high”, “good drug effects” and “hallucination””. The cardiovascular complications result in data set [3] is “devoid of serious cardiovascular complications”. Further, the “selectivity for 5-HT2C over 5-HT2B receptors” value in data set [13] (setting [16]) is reported as about 100 fold. Besides, the “selectivity for (5-HT)2C versus 5-HT2B receptor” value in data set [13] (in vitro testing) was 100 ×. In data set [6], the “effectiveness of cocaine to reinstate extinguished responding for cocaine” value is listed as “dose-dependently decreases”. Moreover, the weight loss entry in data set [14] is reported as “modest, but sustained weight loss”. Moreover, in data set [10], the “effect on PR responding for cocaine (reinforcing effectiveness of cocaine)” value was “inhibited responding in a dose-dependent manner; also recorded: dose-dependently decreases the reinforcing effectiveness of cocaine”. Besides, the “sensitivity of females relative to males” value in data set [10] (PR schedule, 2 male and 2 female monkeys, females more sensitive) is on record as about 3 fold. Moreover, the head-twitches entry in data set [15] is recorded as “produces 5-HT2A receptor-mediated head-twitches”.

Consider `Clc1cccc(N2CCNCC2)c1` [mCPP, meta-chlorophenylpiperazine], for which the “cocaine self-administration and/or reinstatement” value in data set [1] is recorded as “decrease cocaine self-administration and/or inhibit the reinstatement of a response previously reinforced by cocaine”.
